Series [1] deals with Serotoninergic (S2) receptor binding site (Homo sapiens, UniProt P28223). The series is described as follows: In vitro receptor binding, serotoninergic (S2). As to conditions: predictive correlate: lack of EPS (?).
Series [2] in a line: Blood plasma concentration after dosing of rats. The format is in vivo. As to conditions: 30 minutes after dosing. From the text:
In this regard, compound I represents an antipsychotic agent giving an improved neuropharmacological profile compared with BMY 13859.

The target of series [3] is Muscarinic receptor binding site. The series is described as follows: In vitro receptor binding, muscarinic. To be noted: predictive correlate: dry mouth, constipation.
The target of series [4] is α-adrenergic (α1) receptor binding site. The series is described as follows: In vitro receptor binding, α-adrenergic (α1). To be noted: predictive correlate: postural hypotension, palpitations.
Series [5] has as its target Dopaminergic (D2) receptor binding site (Homo sapiens, UniProt P14416). The series is described as follows: In vitro receptor binding, dopaminergic (D2). To be noted: predictive correlate: antipsychotic efficacy, EPS liability.
The nature of series [6]: Metabolic interconversion in humans. The class given is in vivo. To be noted: high pressure liquid chromatography. From the text:
(§1) Currently, there is insufficient information available to confirm that compound I is a metabolite of BMY 13859. […] Such interconversions have been previously reported, as for sulindac, supra.

A short description of series [7]: Metabolic interconversion in rats. The class given is in vivo.
From the text: as §1

Series [8] deals with apomorphine-induced stereotypy (dopaminergic activity in rats). The series is described as follows: Inhibition of Apomorphine-Induced (APO) Stereotypy. The class given is in vivo. The text has this: 2. Inhibition of Apomorphine-Induced (APO) Stereotypy --an assessment of blockade of dopaminergic activity in rats as measured by attenuation of the behavioral syndrome caused by the dopamine agonist, apomorphine. cf: Janssen, et al., Arzneimittel. Forsch., 17, 841 (1966).

The next series is described as follows: Catalepsy (induction). To be noted: rat, in vivo; oral; rats; read-out: oral ED50 in inducing catalepsy. The class given is in vivo. From the text: (§2) 3. Catalepsy--drug-induced catalepsy in rats is predictive of potential extrapyramidal symptoms (EPS) in man. cf: Costall, et al, Psychopharmacologia, 34, 233-241 (1974); Berkson, J. Amer. Statist. Assoc., 48, 565-599 (1953).

Series [9] deals with drug-induced catalepsy in rats. The series is described as follows: Catalepsy (induction). The format is in vivo. To be noted: oral.
From the text: as §2

Series [10] has as its system avoidance response to electrical shock in trained fasted rats. As to the kind of experiment: Conditioned Avoidance Response (CAR). The class given is in vivo. The text has this:
1. Conditioned Avoidance Response (CAR)--measure of a drug's tranquilizing activity as determined by its attenuation of avoidance response to electrical shock in trained fasted rats. cf: Albert, Pharmacologist, 4, 152 (1962); Wu, et al, J. Med. Chem., 12, 876-881 (1969).

Series [11] can be described thus: Antipsychotic activity testing of dioxide (II). As to conditions: in vivo.
For series [12] the following is noted: Kwan and Heimlich, Internat. J. of Pharmaceutics, 6, (1980) 237-241, cited for biotransformations; cited from earlier work.

Each structure is given as a SMILES string. pIC50: −log10 of the molar value.

Sequence of Dopaminergic (D2) receptor binding site (P14416 whole entry): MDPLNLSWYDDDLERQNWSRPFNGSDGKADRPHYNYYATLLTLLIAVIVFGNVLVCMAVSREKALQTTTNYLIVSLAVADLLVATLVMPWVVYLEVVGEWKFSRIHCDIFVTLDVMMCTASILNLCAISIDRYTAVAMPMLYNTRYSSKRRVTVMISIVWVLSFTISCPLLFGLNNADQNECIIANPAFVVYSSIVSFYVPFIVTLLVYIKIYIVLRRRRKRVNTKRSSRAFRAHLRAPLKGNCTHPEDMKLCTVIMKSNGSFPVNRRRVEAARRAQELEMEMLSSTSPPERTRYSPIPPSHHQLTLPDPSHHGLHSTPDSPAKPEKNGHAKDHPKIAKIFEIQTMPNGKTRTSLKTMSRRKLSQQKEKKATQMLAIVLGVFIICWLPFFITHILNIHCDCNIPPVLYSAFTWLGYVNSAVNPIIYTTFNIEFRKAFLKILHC
Sequence of Serotoninergic (S2) receptor binding site (P28223 whole entry): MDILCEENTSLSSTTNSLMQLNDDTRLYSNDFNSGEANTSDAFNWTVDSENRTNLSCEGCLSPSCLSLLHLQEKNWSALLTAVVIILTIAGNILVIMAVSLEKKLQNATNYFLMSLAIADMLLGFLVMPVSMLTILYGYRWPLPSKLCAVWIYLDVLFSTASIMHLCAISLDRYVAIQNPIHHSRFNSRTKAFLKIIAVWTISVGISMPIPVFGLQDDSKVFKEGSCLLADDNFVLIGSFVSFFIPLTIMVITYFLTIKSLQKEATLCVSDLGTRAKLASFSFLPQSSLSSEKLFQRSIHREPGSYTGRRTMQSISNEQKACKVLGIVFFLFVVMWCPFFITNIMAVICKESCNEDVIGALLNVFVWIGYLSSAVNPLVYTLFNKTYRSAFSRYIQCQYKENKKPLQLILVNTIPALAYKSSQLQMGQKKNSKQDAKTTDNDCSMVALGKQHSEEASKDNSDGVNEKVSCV

By pIC50 is commonly meant −log10 of the IC50, conventionally taken in molar units. As for `O=C1CC2(CCCC2)CC(=O)N1CCCCN1CCN(c2nsc3ccccc23)CC1` [BMY 13859, reference compound], the negative-log IC50 (pIC50) was 9.00 in [1], < 6.00 in series [3], 7.30 in series [4] and 8.00 in series [5]. In addition, the “concentration of administered agent in blood plasma versus the other (interconverted) agent” value in series [2] is given as “several-fold higher in concentration”. The “compound formed after administration of BMY 13859” value in series [6] and in [7] (high pressure liquid chromatography) was “a compound which co-elutes (high pressure liquid chromatography) with compound I is formed” throughout.
The ED50 is the dose at which the effect has come halfway, by size or by number of responders. `O=C1CC2(CCCC2)CC(=O)N1CCCCN1CCN(c2n[s+]([O-])c3ccccc23)CC1` (stereo not shown) [Compound I, 8-[4-[4-(1-oxo-1,2-benzisothiazol-3-yl)-1-piperazinyl]butyl]-8-azaspiro[4.5]decane-7,9-dione]: the pIC50 in series [1] was 6.52; in series [3] it was < 6.00; in series [4], 6.48; in [5] it was < 6.00. Further, the “activity in the APO stereotypy test” value in series [8] is “potent activity”. For the same compound, the “concentration of administered agent in blood plasma versus the other (interconverted) agent” value in series [2] is “several-fold higher in concentration”. In addition, the ED50 in the series “Catalepsy (induction)” is > 30 mg/kg. For the same compound, the “activity in inducing catalepsy” value in series [9] was “inactive”. Also, in series [7], the “compound formed after administration of compound I” value is “authentic BMY 13859 is formed in rats”. In [10], the “activity in the CAR test” value was “potent activity”.
Consider `O=C1CC2(CCCC2)CC(=O)N1CCCCN1CCN(C2=NS(=O)(=O)c3ccccc32)CC1` [II], for which the antipsychotic activity result in series [11] was “devoid of antipsychotic activity”.
On to `CC1=C(CC(=O)O)c2cc(F)ccc2C1=Cc1ccc([S+](C)[O-])cc1` (stereo not shown) [sulindac], for which the “pharmacological activity of sulindac” value in series [12] is on record as “appears to reside only in the sulfide metabolite”.

The record behind these values is US4656173A, “Antipsychotic benzisothiazole S-oxide compound” (Bristol-Myers Company, priority 1985, dated 1987).
